How the values were obtained:
[1] = physchem; conditions: water
[2] = pH 6

Row | Molecule | solubility [1] | redissolubility [2]
1 | CCCCCCCCCCCCCCCCCCNC(=O)OCC(COP(=O)([O-])OCC[n+]1ccsc1)OC (centres unmarked) [Compound [1], 3-(n-Octadecylcarbamoyloxy)-2-methoxypropyl 2-thiazolioethyl phosphate] | ~100 mg/mL | 
2 | alanine |  | O (key: O: dissolved within one minute; Δ: dissolved within one to three minutes)

— patent publication US4866044A, “Solubilized composition of poorly-soluble pharmaceutical product” (Takeda Chemical Industries, Ltd., priority 1985, dated 1989)
